Experimental data: patent publication US20130158070A1, “CONJUGATES OF POLYUNSATURATED FATTY ACIDS AND AMINE-CONTAINING COMPOUNDS AND USES THEREOF” (priority 2010, published 2013)

Assays:
[1] = test system: collagen induced arthritis; assay: Collagen induced arthritis (CIA), PGE2 production and TNFα levels; format: in vivo, black/57 mice; settings: 250 mg/(kg/day) orally, 21 days, compared to Ibuprofen 500 mg/(kg/day)
Protocol: Male black/57 mice, age 8-10 weeks, were used in in vivo study of PGE2 production and TNFα levels in collagen induced arthritis (CIA) model.
Bovine CII (type II collagen CII, Sigma, St. Louis, Mo., USA) was dissolved in 0.1 M acetic acid overnight at 4° C. and was thereafter emulsified in an equal volume of complete Freund's adjuvant (Sigma). The mice were immunized intradermally at the base of the tail with 100 μl of emulsion containing 100 μg of CII. On day 21, mice were boosted intraperitoneally with 100 μg CII dissolved in phosphate buffered saline (PBS).
The tested conjugate or Ibuprofen (Sigma, Israel) were dissolved in 80% Cremophor EL:saline 80%:20%, respectively.
Mice were randomly selected and assigned to one of the following groups: tested conjugate (250 mg/(kg/day); n=4), Iboprofen (500 mg/ (kg/day); n=4) or vehicle (n=4). The tested conjugate and Ibuprofen were administered orally. Treatment was given daily for a period of 21 days.
Joint tissues were prepared as previously described for measuring the production of PGE2 and cytokines. […] PGE2 concentration was measured with a commercial radio immunoassay (RIA) kit (Amersham, UK) according to the manufacturer's instructions. […] Results were expressed as pg/ml of serum or supernatant from joint homogenate.

DNBS-induced colitis = assay: DNBS-induced experimental colitis in mice, oral administration; format: in vivo; settings: day four after DNBS, MWL001 50 mg/kg oral daily
Protocol: In this study, the effect of MWL001 on pro-inflammatory mediators in DNBS-induced experimental colitis in mice was evaluated. In particular it was observed that there was no expression of TNF-α, CD4, TGF-13, CD25 in the colon tissue from sham-treated mice. MWL001 and DEX were administered orally and daily starting at six hours after the DNBS challenge.
Colitis was induced with a very low dose of 2,4-dinitrobenzene sulfonic acid (DNBS) (4 mg per mouse) by using a modification of the method first described in mice. […] Mice were anesthetized by Enflurane. DNBS (4 mg in 100 μl of 50% ethanol) was injected into the rectum through a catheter inserted 4.5 cm proximally to the anus. The carrier alone (100 μl of 50% ethanol) was administered in control experiments. Thereafter, the animals were kept for 15 minutes in a Trendelenburg position to avoid reflux. […] On Day four, the animals were weighed and anaesthetized with chloral hydrate, and their abdomen was opened by a midline incision. The colon was removed, freed from surrounding tissues, opened along the antimesenteric border and processed for histology.
TNF-α and IL-6 levels were evaluated and colon tissues collected at four days after DNBS administration. Briefly, portions of terminal colon were homogenized as previously described in phosphate-buffered saline (PBS, ICN Biomedicals, Milan, Italy) containing two mmol/L of phenyl-methyl sulfonyl fluoride (PMSF, Sigma Chemical Co.). The assay was carried out using a colorimetric, commercial kit (R&D system Milan, Italy) according to the manufacturer instructions. All cytokines determinations were performed in duplicate serial dilutions.
At four days after DNBS administration, colon tissues were fixed in 10% (w/v) PBS-buffered formaldehyde and 7 μm sections were prepared from paraffin embedded tissues. After deparaffinization, endogenous peroxidase was quenched with 0.3% (v/v) hydrogen peroxide in 60% (v/v) methanol for 30 min. The sections were permeabilized with 0.1% (w/v) Triton X-100 in PBS for 20 min. Non-specific adsorption was minimized by incubating the section in 2% (v/v) normal goat serum in PBS for 20 min. Endogenous biotin or avidin binding sites were blocked by sequential incubation for 15 min with biotin and avidin (Vector Laboratories, Burlingame, Calif.), respectively. Sections were incubated overnight with: 1) purified polyclonal antibody directed towards CD4 (Santa Cruz Biotechnology, 1:500 in PBS, v/v) or 2) with purified anti-CD25 (Santa Cruz Biotecnology 1:500 in PBS, w/v) or 3) with anti- TNF-α polyclonal antibody (Santa Cruz Biotechnology, N-19:sc-1350, 1:500 in PBS, v/v) or 4) with anti-TGF-β polyclonal antibody (Santa Cruz, 1:500 in PBS, v/v).
Sections were washed with PBS, and incubated with a secondary antibody. Specific labelling was detected with a biotin-conjugated goat anti-rabbit IgG and avidin-biotin peroxidase complex (Vector Laboratories, Burlingame, Calif.).

[2] = test system: carrageenan-induced edema; assay: Carrageenan-induced paw edema in rats; format: in vivo, Sprague dawley rats; settings: carrageenan 1 mg/paw, versus Ibuprofen, FIG. 4
Protocol: Exemplary conjugates were subjected to in vivo study of paw edema measurements in rats. Sprague dawley rats (150-200 grams) were used. Edema was induced by a single sub-plantar injection of carrageenan (1 mg/paw) into the left hind paw of the rat under light ether anesthesia. The total volume injected was 0.1 ml. The paw volume was measured immediately before the injection and at hourly intervals thereafter using a hydroplethysmometer (model 7150, Ugo Basile, Italy). The results were expressed either as the increase in paw volume (ml) calculated by subtracting the basal volume or by calculating the area under the time-course curve (AUC; ml h) for each group.
The anti-inflammatory activity of the conjugates was tested versus Ibuprofen, as a reference, on carrageenan-induced edema at different time intervals.

Structure (SMILES): CCC=CCC=CCC=CCC=CCC=CCC=CCCC(=O)N1CC(O)CC1C(=O)O (stereo not drawn) [MWL001]
- Prostaglandin E2 levels in the joints [1]: significant decrease
- TNF-α levels [1]: significant decrease
- IL-6 colon levels (DNBS-induced colitis; colorimetric kit): significant reduction
- TNF-α colon levels (DNBS-induced colitis; colorimetric kit): significant reduction
- expression of CD4 in colon tissue (DNBS-induced colitis; immunostaining): significantly reduced
- expression of CD25 in colon tissue (DNBS-induced colitis; immunostaining): significantly reduced
- expression of TGF-β in colon tissue (DNBS-induced colitis; immunostaining): significantly reduced
- expression of TNF-α in colon tissue (DNBS-induced colitis; immunostaining): significantly reduced
- anti-inflammatory effect (paw swelling volume) [2]: superior to Ibuprofen
